The source of these data is ChEMBL document CHEMBL3352700 (Bioorg Med Chem Lett, 2015).

A short description of data set [1]: Effective permeability by PAMPA method. In kind it is ADME. Conditions: read-out: Peff.
Data set [2] deals with Rattus norvegicus. Kind of data set: AUC (infinity) in IGS rat at 3 mg/kg, po administered as single dose. In kind it is ADME, organism-based, Plasma. The arrangement: time infinity, dose 3 mg/kg, route oral. The conditions noted are these: in vivo.
For data set [3], the system named is Rattus norvegicus. The experiment in a line: Volume of distribution at steady state in IGS rat at 3 mg/kg, po administered as single dose. In kind it is ADME, organism-based. The arrangement: dose 3 mg/kg, route oral. Conditions: in vivo.
The nature of data set [4]: Oral bioavailability in Beagle Marshall dog at 1 mg/kg administered as single dose. The class given is ADME, organism-based, Canis lupus familiaris. Conditions: in vivo.
The nature of data set [5]: Cmax in Beagle Marshall dog at 1 mg/kg, po administered as single dose. The class given is ADME, organism-based, Canis lupus familiaris. More on the design: dose 1 mg/kg, route oral. Conditions: in vivo.
The nature of data set [6]: Cmax in rat at 300 mg/kg, po. The class given is ADME, organism-based. The arrangement: dose 300 mg/kg, route oral. Conditions: in vivo.
Data set [7] can be described thus: Volume of distribution at steady state in Beagle Marshall dog at 1 mg/kg administered as single dose. In kind it is ADME, organism-based, Canis lupus familiaris. Conditions: in vivo, read-out: Vdss. The arrangement: dose 1 mg/kg.
Data set [8] is described as follows: AUC (infinity) in Beagle Marshall dog at 1 mg/kg, po administered as single dose. More on the design: time infinity, dose 1 mg/kg, route oral. Conditions: plasma. The class given is ADME, organism-based, Canis lupus familiaris.
A short description of data set [9]: AUC (infinity) in IGS rat at 1 mg/kg, iv administered as single dose. The class given is ADME, organism-based. The arrangement: time infinity, dose 1 mg/kg, route intravenous. Conditions: plasma.
Data set [10] can be described thus: Oral bioavailability in IGS rat at 3 mg/kg administered as single dose. The class given is ADME, organism-based. The conditions noted are these: in vivo.
The nature of data set [11]: Cmax in IGS rat at 3 mg/kg, po administered as single dose. The class given is ADME, organism-based. More on the design: dose 3 mg/kg, route oral. The conditions noted are these: in vivo.

In the case of `CN(C)CCn1c(CC(C)(C)C)nc2cc(S(=O)(=O)C3CN(CC(F)(F)F)C3)ccc21`, the Papp in [1] came to 18 ×10⁻⁶ cm/s.
In the case of `CN(C)CCn1c(CC(C)(C)C)nc2cc(S(=O)(=O)C3CN(S(C)(=O)=O)C3)ccc21`, the Papp in data set [1] is 5.9 ×10⁻⁶ cm/s.
On the same count and under the same terms, the value for `CN(C)CCn1c(CC(C)(C)C)nc2cc(S(=O)(=O)C3CN(C)C3)ccc21` was 7.8 ×10⁻⁶ cm/s.
The same measure, in the same setting: the value for `CCN1CC(S(=O)(=O)c2ccc3c(c2)nc(CC(C)(C)C)n3CCN(C)C)C1` was 10 ×10⁻⁶ cm/s.
In the data set with Rattus norvegicus [2], `CN(C)CCn1c(CC(C)(C)C)nc2cc(S(=O)(=O)C3CN(CCO)C3)ccc21` yielded an AUC of 300 ng·h/mL. Moreover, in the data set with Rattus norvegicus [3], the Vdss worked out at 5.696 L/kg. For the same molecule, the Papp in data set [1] amounted to 1.5 ×10⁻⁶ cm/s. The bioavailability in [4] is 72%; in data set [10], 20%. For the same molecule, the Cmax is 102 ng/mL in data set [5], 1800 ng/mL in data set [6] and 38 ng/mL in [11]. The Vd in data set [7] amounted to 5.69 L/kg. In addition, the AUC(0-inf) in data set [8] worked out at 1000 ng·h/mL; in [9], 391 ng·h/mL.
Take `CN(C)CCn1c(CC(C)(C)C)nc2cc(S(=O)(=O)C3CN(C(N)=O)C3)ccc21`: the Papp in [1] was 0.6 ×10⁻⁶ cm/s.
